Reference: patent US20250034170A1, “SMALL MOLECULE MODULATORS OF GLUCOCEREBROSIDASE ACTIVITY AND USES THEREOF” (Vanqua Bio, Inc., priority 2021, published 2025)

biological target: T1, GCase (Homo sapiens, UniProt P04062); experiment: activation of GCase in a live cell PFB assay in HELA cells; type: cell-based; conditions: EC50 given as range classes
T1 construct: endogenous in cells; host or cells: HeLa cells
T1 sequence (P04062 40-536): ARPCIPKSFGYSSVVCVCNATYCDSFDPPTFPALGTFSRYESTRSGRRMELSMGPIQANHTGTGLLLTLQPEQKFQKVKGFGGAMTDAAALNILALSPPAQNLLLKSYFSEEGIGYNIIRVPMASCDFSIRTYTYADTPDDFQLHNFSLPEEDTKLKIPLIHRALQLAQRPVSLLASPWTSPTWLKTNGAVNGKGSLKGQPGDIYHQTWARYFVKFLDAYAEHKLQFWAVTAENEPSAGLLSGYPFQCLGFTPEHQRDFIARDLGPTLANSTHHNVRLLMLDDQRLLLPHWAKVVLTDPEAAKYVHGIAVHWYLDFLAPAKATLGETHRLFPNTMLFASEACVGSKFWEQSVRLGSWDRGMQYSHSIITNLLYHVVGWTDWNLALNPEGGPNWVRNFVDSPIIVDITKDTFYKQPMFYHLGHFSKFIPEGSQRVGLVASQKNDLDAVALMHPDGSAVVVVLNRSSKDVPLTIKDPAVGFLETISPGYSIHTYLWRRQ
Protocol: Exemplary compounds were evaluated for activation of GCase in a live cell PFB assay in HELA cells (essentially as described in Ysselstein et al., “LRRK2 kinase activity regulates lysosomal glucocerebrosidase in neurons derived from Parkinson's disease patients” Nature Communications (2019) 10:5570). […] EC50 ranges: A: <10 μM; B: >10-50 μM; C: >50-100 μM; D: >100 μM.

First: Cc1nn(C2COC2)c2nc(N3CCC4(CN(c5cnc(C(F)(F)F)nc5)C4)C3)cnc12 [Cmpd 428]
Second: COc1ncc(N2CCC3(CN(c4ccnc(C(F)(F)F)c4)C3)C2)nc1-c1nncs1 [Cmpd 1021]
The EC50 of the first is lower: < 10 µM for the first, 10 to 50 µM for the second. The first is the more potent here.

Compared with FC(F)Cn1ncc2ncc(N3CCC4(CN(c5cccc(OC(F)(F)F)n5)C4)C3)nc21 [Cmpd 405], O=C(c1ccccc1OC(F)F)N1CC2(CCN(c3cnc4cnn(CC(F)F)c4n3)C2)C1 [Cmpd 389] is lower in EC50: 10 to 50 µM for the first, < 10 µM for the second. The second is the more potent here.

Compared with COc1nc(N2CCC3(CCN(c4cnc5cnn(CC(F)F)c5n4)CC3)C2=O)ccc1C(F)(F)F [Cmpd 783], FC(F)Cn1ncc2ncc(N[C@H]3CC[C@@]4(CCN(c5cc(C(F)(F)F)ccn5)C4)CC3)nc21 [Cmpd 197] is lower in EC50: 50 to 100 µM for the first, 10 to 50 µM for the second.

FC(F)Cn1ncc2ncc(NC3COC4(C3)CN(c3ccc(C(F)(F)F)nc3)C4)nc21 (centres unmarked) [Cmpd 191] showed an EC50 of 10 to 50 µM.

same assay, conditions: activation of GCase, EC50 ranges

FC(F)Cn1ncc2ncc(N3CCC4(CC3)CC(COc3cncc(C(F)(F)F)c3)C4)nc21 [Cmpd 696] and FC(F)Cn1ncc2ncc(N3CCC4(CC3)CC(Oc3cccnc3C(F)(F)F)C4)nc21 [Compound 88, 7-[1-(2,2-difluoroethyl)-1H-pyrazolo[3,4-b]pyrazin-6-yl]-2-{[2-(trifluoromethyl)pyridin-3-yl]oxy}-7-azaspiro[3.5]nonane] cannot be ordered by EC50: < 10 µM for the first, < 10 µM for the second.

O=C1N(Cc2cnc(C(F)(F)F)cn2)CCC12CCN(c1cnc3cnn(CC(F)F)c3n1)CC2 [Cmpd 927] and O=C1N(c2cncc(C(F)(F)F)n2)CCC12CCN(c1cnc3cnn(CC(F)(F)F)c3n1)CC2 [Cmpd 272] fall in the same range of EC50: 10 to 50 µM for the first, 10 to 50 µM for the second.

O=C1CC2(CCN(c3cnc4cnn(CC(F)F)c4n3)C2)CN1c1ccnc(C(F)(F)F)c1 (centres unmarked) [Cmpd 494] and CC(c1ccnc(C(F)(F)F)c1)N1CC2(CCN(c3cnc4cnn(CC(F)F)c4n3)CC2)CC1=O (centres unmarked) [Cmpd 969] cannot be ordered by EC50: < 10 µM for the first, < 10 µM for the second.

Compared with O=C(c1ccc(C(F)(F)F)nc1)N1CCC2(CCN(c3cnc4cnn(CC(F)F)c4n3)CC2)C1 [Cmpd 313], FC(F)Cn1ncc2ncc(N3CCC4(CC3)CN(c3cnccc3C(F)(F)F)C4)nc21 [Compound 76, 7-[1-(2,2-difluoroethyl)-1H-pyrazolo[3,4-b]pyrazin-6-yl]-2-[4-(trifluoromethyl)pyridin-3-yl]-2,7-diazaspiro[3.5]nonane] is lower in EC50: 10 to 50 µM for the first, < 10 µM for the second.

Compared with FC(F)Cn1ncc2ncc(N3CC4(CC(COc5ccc(C(F)(F)F)nc5)C4)C3)nc21 [Compound 133, 2-[1-(2,2-difluoroethyl)-1H-pyrazolo[3,4-b]pyrazin-6-yl]-6-({[6-(trifluoromethyl)pyridin-3-yl]oxy}methyl)-2-azaspiro[3.3]heptane], O=C1N(c2cnc3cnn(CC(F)F)c3n2)CCCC12CN(c1ccc(C(F)(F)F)nc1)C2 [Cmpd 342] is higher in EC50: < 10 µM for the first, > 100 µM for the second. The first is the more potent here.

CC(C)c1ncc(N2CC3(CCN(c4cnc5cnn(CC(F)F)c5n4)C3)C2)cn1 [Cmpd 559] and Cc1cc(N2CC3(CCN(c4cnc5cnn(CC(F)F)c5n4)C3)C2)nc(C)n1 [Cmpd 639] fall in the same range of EC50: 10 to 50 µM for the first, 10 to 50 µM for the second.

Cc1nc(N2CCC3(CCN(c4cnc5cnn(CC(F)F)c5n4)C3)C2)cc(C(F)(F)F)n1 (centres unmarked) [Cmpd 521] and Cc1nc(C(F)F)cc(N2CC3(CCN(c4cnc5cnn(CC(F)F)c5n4)C3)C2)n1 [Cmpd 1139] cannot be ordered by EC50: < 10 µM for the first, < 10 µM for the second.

First: FC(F)c1ccnc(N2CCC3(CC2)CCN(c2cnc4cnn(CC(F)(F)F)c4n2)C3)c1 [Compound 162, 8-[4-(difluoromethyl)pyridin-2-yl]-2-[1-(2,2,2-trifluoroethyl)-1H-pyrazolo[3,4-b]pyrazin-6-yl]-2,8-diazaspiro[4.5]decane]
Second: FC(F)(F)c1ncc(N2CCC3(CCN(c4cncc(-c5nncs5)n4)C3)C2)cn1 (centres unmarked) [Cmpd 532]
The EC50 of the first is lower: < 10 µM for the first, 10 to 50 µM for the second.

Going from Cc1nc(N2CC3(CCN(c4cncc(-c5ccn(CC(F)F)n5)n4)C3)C2)cc(C(F)(F)F)n1 [Cmpd 1118] to CCOc1nn(CC(F)F)c2nc(N3CCC4(CN(c5ccnc(C(F)(F)F)c5)C4)C3)ncc12 [Cmpd 939], the EC50 falls from > 100 µM to < 10 µM.

For O=C(c1nc2ccccc2cc1C1CC1)N1CCC2(CC1)CCN(c1cc(C(F)(F)F)ccn1)C2=O [Cmpd 269], the EC50 was 10 to 50 µM.
